Assay results from patent US12396988B2, “Methods of using muscarinic antagonists in the treatment of depression” (BOARD OF REGENTS, THE UNIVERSITY OF TEXAS SYSTEM, priority 2019, dated 2025).
“Also recorded” adds a separate entry of the source. Structures can show the parent of a compound that is named as a salt.

Tests used:
[1] = tested on: rats; experiment: Cognitive evaluation: delayed-matching-to-sample (DMTS) touch-screen task, short-term memory; format: in vivo; conditions: doses 0.1-3.2 mg/kg, FIG. 5 left panel
Text: In cognitive evaluation tests, rats are exposed to a touch screen procedure that evaluates memory (delayed matching to sample, DMTS) and attention (psychomotor vigilance). In the DTMS, a commonly used recognition task to test short-term memory, the subject (a rat) is presented with a sample stimulus. In our procedure, when the rats touch the sample stimulus it terminates on the screen. After a pre-set delay two comparison stimuli appear. A touch response on the comparison stimulus that matches some physical property of the sample stimulus (i.e. color) results in reward delivery. Touching the incorrect comparison stimulus results in a timeout. Accuracy is then plotted vs different delay values to determine a “forgetting function”. This same procedure has been used by many others to assess the deleterious effects of various classes of psychoactive drugs.
(§1) Additional tests involved a novel touch-screen procedure that evaluated memory (delayed-matching-to-sample, DMTS) and attention (psychomotor vigilance, PVT).
In the DMTS, a commonly used recognition task to test short-term memory, rats were presented with a sample stimulus. When the rats touched the sample stimulus, it terminated on the screen. After a pre-set delay, two comparison stimuli appeared. […] Accuracy was then plotted vs. different delay values to determine a “forgetting function.”

[2] = tested on: rats; experiment: Cognitive evaluation: psychomotor vigilance (PVT) touch-screen task, attention; format: in vivo; conditions: doses 0.1-10 mg/kg, FIG. 5 right panel
Text: Psychomotor vigilance is used to evaluate drug effects of attention and vigilance over a period of time. Championed by David Dinges of U. Penn School of Medicine, it is a reaction timed task to measure the speed with which subjects responds to a visual stimulus. In the task, stimuli of varying intensity are presented to a subject (a rat) in randomized location on the screen following unpredictable intervals. The reaction time of the rat to the stimuli will provide a reliable attention threshold in each individual subject. Attention will decrease over time which serves as a baseline for degradation of sustained vigilance. For these studies, a stimulus is presented on a screen in a random location following a variable time interval (5, 15, 30 seconds). Duration of presentation of the stimulus is 2 seconds on first trial. If the correct stimulus is touched by the rat within 2 seconds, a mild reward is delivered and duration of stimulus presentation is […] by 0.25 seconds for subsequent trials (across 500 trials).
as §1
Psychomotor vigilance (PVT) is used to evaluate drug effects on attention and vigilance over a period of time. Championed by David Dinges of U. Penn. […]

[3] = tested on: rats; experiment: Forced swim test (FST); format: in vivo; conditions: 3 mg/kg, 30 min before a 15-min swim, FIG. 4
Method: In the FST, the rats are injected with a test compound and 30 minutes later placed individually in a cylindrical container filled with water at room temperature. The rat's behavior is videotaped from above and is later scored by a trained observed who is blind to the drug conditions. Behavior is classified every 5 seconds over the 15 minute swim period as the following: immobility the rat is hanging quietly in the water, making only enough movement to keep its nose out of the water; swimming moving limbs in an active manner, climbing or actively moving its forepaws against the side of the chamber.
Rats of both sexes as well as rats from the Flinders straw were used for forced swim tests. The rats were injected with a saline control or CJ2100 (0.1 mg/kg, 0.3 mg/kg, 1 mg/kg, or 3 mg/kg) and 30 min later placed individually a cylindrical container (46 cm tall×20 cm, diameter) filled to 30 cm with 25° C. water for a single 15-min forced swim test. Rat behavior was videotaped from above and later scored by a trained observer who was blind to the drug conditions. Behavior was classified every 5 seconds over the 15 minute swim period as following: immobility rat was hanging quietly in the water, making only enough movement to keep its nose out of the water; swimming moving limbs in an active manner, climbing, or actively moving its forepaws against the side of the chamber. […]

[4] = biological target: T1, M2 receptor (Rattus norvegicus, UniProt P10980); experiment: Cardiovascular assay (bradycardia test): antagonism of arecoline-induced bradycardia, telemetry; format: in vivo; conditions: 1 mg/kg test compound s.c. before 10 mg/kg arecoline s.c., rats, FIG. 1
T1 construct: To measure changes in heart rate and mean arterial pressure, rats were implanted with telemetric transmitters; from tissue; host or cells: intact living rats (cardiovascular system, telemetry)
T1 sequence (P10980 1-466): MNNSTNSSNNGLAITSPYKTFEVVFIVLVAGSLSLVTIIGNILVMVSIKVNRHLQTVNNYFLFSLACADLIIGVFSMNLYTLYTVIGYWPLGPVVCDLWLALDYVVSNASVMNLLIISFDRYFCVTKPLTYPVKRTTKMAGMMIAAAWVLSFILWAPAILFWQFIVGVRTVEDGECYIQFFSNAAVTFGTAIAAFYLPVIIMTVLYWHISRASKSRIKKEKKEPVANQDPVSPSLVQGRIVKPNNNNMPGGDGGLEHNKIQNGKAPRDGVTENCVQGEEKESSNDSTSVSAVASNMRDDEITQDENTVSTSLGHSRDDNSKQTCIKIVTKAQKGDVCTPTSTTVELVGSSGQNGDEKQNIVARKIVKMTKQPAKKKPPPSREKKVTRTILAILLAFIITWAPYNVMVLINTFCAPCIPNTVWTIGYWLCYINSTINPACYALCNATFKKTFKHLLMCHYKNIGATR
Text: All rats continued to have free access to food and water at all times.

[5] = tested on: rats; experiment: Drug discrimination test (arecoline vs saline; discriminative stimulus and rate-decreasing effects of arecoline); format: in vivo, Sprague-Dawley rats; conditions: 1.0 mg/kg CJ2100, rats, FIG. 2
Text: Rats are initially trained to nose-poke 10 times in any aperture to receive a dipper of Ensure (fixed ratio 10 FR-10 schedule of reinforcement). Nose-poke biases are noted, and the following assignments are made for the 2-nose-poke condition: 1) approximately half of the rats in each group will have the drug-associated aperture on the left, and the remaining rats will have the drug-associated aperture on the right; 2) the drug-associated aperture is assigned to the non-preferred side in half of the rats.
During training, the rats are injected with saline or their training drug and immediately placed in the chamber for a 5-min blackout, followed by a 20-min response period. […]
When these criteria have been met on 3 consecutive days, testing can begin. […] When the effects of putative antagonists are to be evaluated, these drugs are given 15 min before the start of the session, and the training drug is injected immediately before the rat is placed in the chamber. […]
Data analysis: Full generalization to a test compound is defined as >85% responding on the drug-appropriate aperture, and completing at least one ratio. Discrimination data are expressed as the percent responses on the drug-appropriate aperture, out of the total number of responses made in both apertures. Rates of responding are calculated as well: total number of responses/time during the light-on parts of the session. […]

[6] = tested on: humans; conditions: cited from earlier work
[7] = tested on: rats; conditions: cited from earlier work
[8] = 1.0 mg/kg scopolamine (Winger et al. 2020)

With CN1CCC=C(c2nc(C3CC3)no2)C1 [CJ2100, 3-(3-alkyl-1,2,4-oxadiazol-5-yl)-1,2,5,6-tetrahydro-1-methylpylidine oxalate] the “Effect on ability of the rats to respond in DMTS task (cognitive effect)” value [1] was “did not modify the ability of the rats to respond; also recorded: silent”, the “Mean duration of short term memory (DMTS)” value [1] was “approximately 7 sec” and the “Effect on ability of the rats to respond in PVT task (cognitive effect)” value [2] was “did not modify the ability of the rats to respond; also recorded: silent”. For the same compound, the “Mean titration duration of the stimulus (PVT)” value [2] was “approximately 2 sec”, the “Immobility in forced swim test” value [3] was “decrease in immobility” and the “Swimming in forced swim test” value [3] was “significant increase in swimming”. For the same compound, the “Effect on arecoline-induced bradycardia” value [4] was “attenuates this effect; also recorded: complete attenuation of this effect” and the “Shift to the right in the discriminative stimulus effects of arecoline” value [5] was about 1 log unit.

For CN1[C@@H]2C[C@@H](OC(=O)[C@H](CO)c3ccccc3)C[C@H]1[C@@H]1O[C@@H]12 [scopolamine], the Cognitive side effects [6] is listed as “severe cognitive deficits; also recorded: cognitive impairment including memory disturbances”, the “Anti-depressant effect in humans” value ([6]; oral and intravenous treatment) is listed as “rapid anti-depressant effects” and the “Effect on the discriminative stimulus of arecoline” value [7, 8] is listed as “without affecting the discriminative stimulus of arecoline”. For the same compound, the “Effect on the rate-modifying effects of arecoline” value [7, 8] was “appeared to increase the rate-modifying effects of arecoline”, the “Ability to modify the discriminative stimulus effects of arecoline” value ([7]; compared with CJ2100) was “much less able than CJ2100 to modify” and the “Ability to modify the rate-suppressing effects of arecoline” value ([7]; compared with CJ2100) was “much less able than CJ2100 to modify”.
